Laboratory results: patent US20230172923A1, “METHODS OF TREATING CYTOKINE-RELATED ADVERSE EVENTS” (BRISTOL-MYERS SQUIBB COMPANY, priority 2020, published 2023)
“Also recorded” adds a separate entry of the source.

Columns and labels:
Format in all cases: cell-based, human
[1] = test system: IL-6, IL-8, IL-1β, GM-CSF, MDC, MIP-1α, MIP-1β and TNF-α; assay: LPS-induced secretion of proinflammatory cytokines from PBMCs (whole multiplex panel, result in words); conditions: pre-treatment 1 hour, 1 ng/ml LPS 18 hours
Procedure: Peripheral blood mononuclear cells (PBMCs) from healthy volunteers were seeded at a concentration of 2×10^6 cells/ml and treated with the indicated concentrations of IMiD compounds or control DMSO (0.25%) for 1 hour, before stimulation with 1 ng/ml LPS. After 18 hours, proinflammatory cytokine levels in the supernatant were assessed by multiplex cytokine analysis.
Peripheral blood mononuclear cells (PBMCs) were isolated from the blood of healthy human donors by Ficoll cell separation. The PBMCs were seeded at a concentration of 2×10^6 cells/ml and treated for 1 hour at 37° C. with various concentrations of IMiD compounds or control DMSO (0.25%), before stimulation with 1 ng/ml LPS for 18 hours at 37° C.
Supernatant samples were subjected to multiplex cytokine analysis (Luminex IS100 instrument) to quantify secreted levels of IL-6, IL-8, IL1-beta (IL-1β), GM-CSF, MDC, MIP-1alpha (MIP-1α), MIP-1beta (MIP-1β) and TNF-alpha (TNF-α) (see e.g. FIGS. 7A-C).

[2] = test system: IL-6; assay: LPS-induced IL-6 secretion from isolated monocytes (MSD); conditions: overnight (~17 hours) 1000 nM lenalidomide, 100 nM pomalidomide, 10 nM iberdomide or 1 nM Compound 1; LPS 4 hours
Procedure: Monocytes from healthy volunteers were seeded at a concentration of 1×10^6 cells/ml and treated with the indicated concentration of IMiD/CELMoD agents overnight (~17 hours). The next morning, the monocytes were incubated with the indicated concentration of LPS for 4 hours, before IL-6 levels in the supernatant were assessed using an MSD assay.
eripheral blood mononuclear cells (PBMCs) were isolated from the blood of four healthy human donors by Ficoll cell separation, and then monocytes were isolated from these PBMCs by negative selection. The enriched monocytes were seeded at a concentration of 1×10^6 cells/ml and incubated overnight (~17 hours) with 1000 nM lenalidomide, 100 nM pomalidomide, 10 nM iberdomide or 1 nM Compound 1, or control DMSO (0.001%), before stimulation with various concentrations of LPS for IL-6 secretion.
After 4 hours, the cell culture was spun down at 300 g for 5 minutes to remove cells, and the supernatant was subjected to Meso Scale Discovery (MSD) analysis to quantify secreted IL-6.

[3] = test system: IL-6; assay: LPS-induced IL-6 secretion from isolated macrophages (M0) (MSD); conditions: overnight (~17 hours) 1000 nM lenalidomide, 100 nM pomalidomide, 10 nM iberdomide or 1 nM Compound 1; then LPS
Procedure: Monocytes from healthy volunteers were seeded at a concentration of 3×10^5 cells/ml for 4 days with RPMI 1640 media containing M-CSF (50 ng/mL) (50% media replaced after 2 days) to obtain naive macrophages (M0). At the end of day 4, macrophages were treated with the indicated concentration of IMiD/CELMoD agents overnight (~17 hours). The next morning, the macrophages were stimulated with the indicated concentration of LPS for 8 hours, before IL-6 levels in the supernatant were assessed using an MSD assay.
Peripheral blood mononuclear cells (PBMCs) were isolated from the blood of two healthy human donors by Ficoll cell separation, and then monocytes were isolated from these PBMCs by positive selection using MACS […] magnetic microbeads. The isolated monocytes were seeded at a concentration of 3×10^5 cells/ml and incubated for 4 days with RPMI 1640 media containing M-CSF (50 ng/mL) (50% media replaced after 2 days) to obtain naive macrophages (M0). At the end of day 4, the macrophages were incubated overnight (~17 hours) with 1000 nM lenalidomide, 100 nM pomalidomide, 10 nM iberdomide or 1 nM Compound 1, or control DMSO (0.001%), before stimulation with various concentrations of LPS for IL-6 secretion.
After 6 hours, the cell culture was spun down at 300 g for 5 minutes to remove cells, and the supernatant was subjected to MSD analysis to quantify secreted IL-6.

[4] = test system: IL-6; assay: CC-93269-induced IL-6 secretion, co-culture of PBMCs and K562-BCMA cells (MSD); conditions: 24 hours; for secretion of IL-6 associated with CC-93269 activity, PBMCs + K562-BCMA: pre-treatment 1000 nM lenalidomide, 100 nM pomalidomide, 10 nM iberdomide or 1 nM Compound 1, T-cells to target cells 5:1
Procedure: (§1) Fresh PBMCs were isolated from healthy volunteers, the percentage of CD3+ T-cells (total) was quantified by flow cytometry, and the PBMCs were treated with 1 nM Compound 1 (CC-92480) or control DMSO overnight. The next morning, target cells (K562-BCMA, which overexpress surface BCMA at a very high level) or control cells (K562-MCB, no BCMA expression) were added to the wells at a ratio of 5:1, T-cells to target cells, followed by addition of CC-93269 at the indicated concentrations. At 6-, 24- and 48-hours post-incubation, the cell culture media was collected and levels of IL-6 in the supernatant were assessed using an MSD assay.
The circles indicate independent donors and the bars indicate median values; not all donors are shown because a data cut-off for the bottom ~10% of IL-6 concentrations, below 200 pg/ml, was used to eliminate small changes that could skew the result and to increase confidence in results.
as §1, with “the indicated concentrations of IMiD/CELMoD agents” for “1 nM Compound 1 (CC-92480)”, “level)” for “level) or control cells (K562-MCB, no BCMA expression)”, “24 hours” for “6-, 24- and 48-hours”
Fresh PBMCs were isolated from the blood (buffy coat) of healthy human volunteers by Ficoll based cell separation. The percentage of CD3+ T-cells (total) in the PBMCs was quantified by flow cytometry. The isolated PBMCs were seeded in 12-well plates at a concentration of 1.5×10^6 cells/ml and treated with 1 nM Compound 1 (CC-92480), 1000 nM lenalidomide, 100 nM pomalidomide, 10 nM iberdomide, or control DMSO overnight (~17 hours).
After overnight incubation, target K562-BCMA cells (overexpress surface BCMA at a very high level) or control K562-MCB cells (no BCMA expression) were added to the wells at a ratio of 5:1, T-cells to target cells. K562-BCMA and K562-MCB are an isogenic pair that are derived from a chronic myelogenous leukemia (CML,) cell line. CC-93269 was added to the co-culture at various concentrations and incubated. CC-93269 is an anti-BCMA anti-CD3 bispecific T cell-engaging antibody and is also referred to herein as 42-TCBcv.
At 6, 24 and 48 hours post-incubation, the cell culture media was collected from all samples, spun down at 300 g for 5 minutes to remove cells and the supernatant was subjected to cytokine analysis to quantify secreted levels of IL-6 using an MSD assay.

Row | Structure (SMILES) | LPS-induced secretion of proinflammatory cytokines from PBMCs (effect in words) [1] | LPS-induced IL-6 secretion from monocytes [2] | LPS-induced IL-6 secretion from macrophages [3] | secretion of IL-6 associated with CC-93269 activity, PBMCs + K562-BCMA [4] | median reduction in IL-6 levels relative to DMSO control ([4]; 1 nM Compound 1 pre-treatment, 10 ng/ml CC-93269, PBMCs from 15 healthy donors) | IL-6 secretion at CC-93269 concentrations up to 10,000 ng/mL, PBMCs + K562-BCMA ([4]; Compound 1 pre-treatment)
1 | Nc1cccc2c1CN(C1CCC(=O)NC1=O)C2=O (centres unmarked) [Lenalidomide, 3-(4-amino-1-oxo-2,3-dihydro-1H-isoindol-2-yl) piperidine-2,6-dione] | inhibited | diminished | diminished | diminished/attenuated; also recorded: suppressed | – | –
2 | O=C1CC[C@H](N2Cc3c(OCc4ccc(CN5CCOCC5)cc4)cccc3C2=O)C(=O)N1 [Iberdomide, (S)-3-(4-((4-(morpholinomethyl)benzyl)oxy)-1-oxoisoindolin-2-yl)piperidine-2,6-dione] | inhibited | diminished | diminished | diminished/attenuated; also recorded: suppressed | – | –
3 | N#Cc1ccc(N2CCN(Cc3ccc(COc4cccc5c4CN(C4CCC(=O)NC4=O)C5=O)cc3)CC2)c(F)c1 (stereo not drawn) [Compound 1, 4-(4-(4-(((2-(2,6-dioxopiperidin-3-yl)-1-oxoisoindolin-4-yl)oxy)methyl)benzyl)piperazin-l-yl)-3-fluorobenzonitrile] | – | diminished | diminished | diminished/attenuated; also recorded: suppressed | about two-fold | suppresses
4 | Nc1cccc2c1C(=O)N(C1CCC(=O)NC1=O)C2=O (centres unmarked) [Pomalidomide, 4-amino-2-(2,6-dioxopiperidine-3-yl)isoindoline-1,3-dione] | inhibited | diminished | diminished | diminished/attenuated; also recorded: suppressed | – | –
